Tested on in the first data set: not given
Test: not given
Details: not given
Usually melting point stands for the temperature, or range, at which the solid turns liquid. The compound `O=CN1CCN(c2cc(N3CCOCC3)nc(N3CCN(c4ccccc4)CC3)n2)CC1` [Compound 53, 4-(4-formylpiperazin-1-yl)-6-morpholino-2-(4-phenylpiperazin-1-yl)pyrimidine] had a melting point of 171 to 172 °C.
Same read-out and setting: next, `c1ccc(C2CN(c3nc(N4CCOCC4)cc(N4CCOCC4)n3)CCN2)cc1` (stereo not shown) [Compound 16, 4,6-dimorpholino-2-(3-phenylpiperazin-1-yl)pyrimidine]: 100 to 104 °C; `Cc1cccc(N2CCN(c3nc(N4CCN(C(=O)OC(C)(C)C)CC4)nc(N4CCOCC4)c3F)CC2)c1C` [Compound 177, 2-(4-tert-butoxycarbonylpiperazin-1-yl)-5-fluoro-4-morpholino-6-[4-(2,3-xylyl)piperazin-1-yl]pyrimidine]: 81 to 82 °C; `Cc1ccc(N2CCN(c3nc(N4CCOCC4)cc(N4CCOCC4)n3)CC2)cc1` [Compound 22, 2-[4-(4-methylphenyl)piperazin-1-yl]-4,6-dimorpholinopyrimidine]: 191 to 194 °C.
In turn, `Cc1ccc(N2CCN(c3nc(N4CCOCC4)c(F)c(N4CCOCC4)n3)CC2)cc1` [Compound 98, 5-fluoro-2-[4-(4-methylphenyl)piperazin-1-yl]-4,6-dimorpholinopyrimidine] registered a melting point of 201 to 203 °C.
Consider `Cc1ccccc1N1CCN(c2cc(N3CCOCC3)nc(N3CCN(c4ccccc4C)CC3)n2)CC1` [Compound 62, 2,4-bis[4-(2-methylphenyl)piperazin-1-yl]-6-morpholinopyrimidine], for which the melting point was 98 to 99 °C.
The same measure, in the same setting: then `COc1ccccc1N1CCN(c2nc(N(C)C)nc(N3CCOCC3)c2F)CC1` [Compound 111, 2-dimethylamino-5-fluoro-4-[4-(2-methoxyphenyl)piperazin-1-yl]-6-morpholinopyrimidine], with 108 °C; and `C1=C(c2ccccc2)CCN(c2cc(N3CCOCC3)nc(N3CCOCC3)n2)C1` [Compound 41, 2,4-dimorpholino-6-[4-phenyl (1,2,5,6-tetrahydropyridin-1-yl)]pyrimidine], with 165 to 168 °C; and `Cc1ccccc1N1CCN(c2nc(N3CCOCC3)cc(N3CCOCC3)n2)CC1` [Compound 28, 2-[4-(2-methylphenyl)piperazin-1-yl]-4,6-dimorpholino-pyrimidine], with 149 °C.
`c1c(N2CCOCC2)nc(N2CCOCC2)nc1N1CCN(C2CCCCC2)CC1` [Compound 43, 4-[4-(4-cyclohexyl)piperazin-1-yl]-2,6-dimorpholinopyrimidine]: the melting point was 144 to 147 °C.
`Fc1c(N2CCOCC2)nc(N2CCNC(c3ccccc3)C2)nc1N1CCOCC1` (stereo not shown) [Compound 93, 5-fluoro-4,6-dimorpholino-2-(3-phenylpiperazin-1-yl)pyrimidine] showed a melting point of 170 to 175 °C.
The same measure, in the same setting: then `Cc1cccc(N2CCN(c3nc(N4CCOCC4)nc(N4CCN(C)CC4)c3F)CC2)c1C` [Compound 186, 5-fluoro-4-(4-methylpiperazin-1-yl)-2-morpholino-6-[4-(2,3-xylyl)piperazin-1-yl]-pyrimidine], with 67 to 68 °C; and `Cc1cccc(N2CCN(c3nc(N4CCOCC4)cc(N4CCOCC4)n3)CC2)c1C` [Compound 29, 4,6-dimorpholino-2-[4-(2,3-xylyl)piperazin-1-yl]pyrimidine], with 141 °C.
`Oc1ccc(N2CCN(c3nc(N4CCOCC4)c(F)c(N4CCOCC4)n3)CC2)cc1` [Compound 107, 5-fluoro-2-[4-(4-hydroxyphenyl)piperazin-1-yl]-4,6-dimorpholinopyrimidine] came in with a melting point of 141 °C.
On the same count and under the same terms, next, `CCOc1ccccc1N1CCN(c2nc(N3CCOCC3)c(F)c(N3CCOCC3)n2)CC1` [Compound 103, 2-[4-(2-ethoxyphenyl)piperazin-1-yl]-5-fluoro-4,6-dimorpholinopyrimidine]: 145 °C.
With `Cc1ccccc1/C=C/c1nc(N2CCOCC2)c(N)c(N2CCOCC2)n1` [Compound 137, 5-amino-2-[2-(2-methylphenyl)vinyl]-4,6-dimorpholinopyrimidine], the melting point lay within 151 to 154 °C.
As for `Fc1ccccc1N1CCN(c2nc(N3CCOCC3)c(F)c(N3CCOCC3)n2)CC1` [Compound 106, 5-fluoro-2-[4-(2-fluorophenyl)piperazin-1-yl]-4,6-dimorpholinopyrimidine], the melting point turned out to be 144 °C.
Same read-out and setting: next, `Nc1c(N2CCOCC2)nc(/C=C/c2ccncc2)nc1N1CCOCC1` [Compound 134, 5-amino-4,6-dimorpholino-2-[2-(pyridin-4-yl)vinyl]pyrimidine]: 216 to 220 °C; `c1ccc(-c2c(N3CCOCC3)nc(N3CCOCC3)nc2N2CCN(c3ccccc3)CC2)cc1` [Compound 47, 2,4-dimorpholino-5-phenyl-6-(4-phenylpiperazin-1-yl)pyrimidine]: 203 to 206 °C; `CC(=O)N1CCN(c2cc(N3CCOCC3)nc(N3CCN(c4ccccc4)CC3)n2)CC1` [Compound 54, 4-(4-acetylpiperazin-1-yl)-6-morpholino-2-(4-phenylpiperazin-1-yl)pyrimidine]: 171 to 172 °C.
Same read-out and setting: then `Cc1cccc(N2CCN(c3nc(N4CCN(Cc5ccc(N)cc5)CC4)nc(N4CCOCC4)c3F)CC2)c1C` [Compound 194, 2-[4-(4-aminobenzyl)piperazin-1-yl]-5-fluoro-4-morpholino-6-[4-(2,3-xylyl)piperazin-1-yl]pyrimidine], with 77 to 78 °C; and `Clc1ccc(N2CCN(c3nc(N4CCOCC4)cc(N4CCOCC4)n3)CC2)cc1` [Compound 33, 2-[4-(4-chlorophenyl)piperazin-1-yl]-4,6-dimorpholinopyrimidine], with 213 °C; and `CN(C)c1c(N2CCOCC2)nc(N2CCN(c3ccccc3)CC2)nc1N1CCOCC1` [Compound 141, 5-dimethylamino-4,6-dimorpholino-2-(4-phenylpiperazin-1-yl)pyrimidine], with 208 to 210 °C.
Same read-out and setting: next, `Cc1ccccc1N1CCN(c2nc(N3CCOCC3)c(F)c(N3CCN(c4ccccc4C)CC3)n2)CC1` [Compound 129, 2,4-bis[4-(2-methylphenyl)piperazin-1-yl]-5-fluoro-6-morpholinopyrimidine]: 106 to 107 °C.
On to `c1ccc2c(c1)CN(c1nc(N3CCOCC3)cc(N3CCOCC3)n1)C2` [Compound 10, 2-(isoindolin-2-yl)-4,6-dimorpholinopyrimidine], for which the melting point lay within 194 to 198 °C.
Compound `CC(C)(C)OC(=O)N1CCN(c2nc(N3CCN(c4ccccc4Cl)CC3)nc(N3CCOCC3)c2F)CC1` [Compound 188, 4-(4-tert-butoxycarbonylpiperazin-1-yl)-2-[4-(2-chlorophenyl)piperazin-1-yl]-5-fluoro-6-morpholinopyrimidine] came in with a melting point of 75 to 76 °C.
Same read-out and setting: then `Cc1ccccc1N1CCN(c2nc(N3CCOCC3)c(F)c(N3CCOCC3)n2)CC1` [Compound 104, 5-fluoro-2-[4-(2-methylphenyl)piperazin-1-yl]-4,6-dimorpholinopyrimidine], with 72 °C; and `Fc1c(N2CCNCC2)nc(N2CCN(c3ccccc3Cl)CC2)nc1N1CCOCC1` [Compound 189, 2-[4-(2-chlorophenyl)piperazin-1-yl]-5-fluoro-4-morpholino-6-(1-piperazinyl)pyrimidine], with 70 to 71 °C; and `c1ccc(N2CCN(c3nc(N4CCOCC4)cc(N4CCOCC4)n3)CC2)cc1` [Compound 1, 4,6-dimorpholino-2-(4-phenylpiperazin-1-yl)pyrimidine], with 182 to 184 °C.
The same measure, in the same setting: then `Fc1ccccc1N1CCN(c2nc(N3CCNCC3)c(F)c(N3CCOCC3)n2)CC1` [Compound 182, 5-fluoro-2-[4-(2-fluorophenyl)piperazin-1-yl]-4-morpholino-6-(1-piperazinyl)pyrimidine], with 51 to 52 °C.

In a further data set the test system is astrocyte/neuron co-culture. Briefly: Brain cell damage induced by hydrogen peroxide treatment (LDH assay). The format is cell-based. Conditions: Rattus norvegicus, hydrogen peroxide (250 μM), 24 hours, read-out: 50% inhibition concentration against cell damage in entire co-culture system (EC50 value). The protocol:
The brain was removed from 1 to 2 day old Wistar rats (Charles River) or Sprague-Dawley (IGS) rats (Charles River), and the cerebral cortex including the hippocampus was excised under ice cooling. After this cerebral cortex was minced, it was digested with papain solution (9 U/ml) containing DNase I (30 U/ml) at 37 degrees Celsius for 15 minutes, dispersing the cells. After further carrying out mechanical dispersing by pipetting, it was passed through a cell strainer with a pore size of 70 μm, and a cell suspension was obtained. Cells derived from 1.4 cerebra were seeded on 150 mm tissue culture dish (Iwaki Glass), and primary culture was carried out at 37 degrees Celsius and 5% CO2 using a D-MEM medium (Invitrogen) containing 10% heat-inactivated fetal calf serum (JRH). One day after the start of the culture, the nonadherent cells were removed, and the primary cultured astrocytes were obtained by continuing the culture for 4 to 5 further days. The primary cultured astrocytes were dispersed by trypsin treating, suspended in cryopreservation solution, and cryopreserved.
After thawing the cryopreserved primary cultured astrocytes, they were seeded on tissue culture plates (Iwaki Glass), and a confluent astrocyte layer was produced by a further 7 days of secondary culture using a D-MEM medium containing 10% heat-inactivated fetal calf serum. Neurons to be used in the co-culture with the astrocyte layer were obtained from fetal rat cerebrum. Briefly, brains were removed from Wistar rats (Charles River) or Sprague-Dawley (IGS) rats (Charles River) of embryonic age 18.5 days, and the cerebral cortex including the hippocampus was excised under ice cooling. After this cerebral cortex was minced, it was digested in papain solution (9 U/ml) containing DNase I (30 U/ml) at 37 degrees Celsius for 15 minutes, dispersing the cells. After further carrying out mechanical dispersing by pipetting, it was passed through a cell strainer with a pore size of 70 μm, and a cell suspension was obtained. This cell suspension was plated at a density of 1.3×10^5 cells/cm^2 on the astrocyte layer, and a co-culture was carried out using D-MEM/F-12 medium (Invitrogen) containing 10% heat-inactivated fetal calf serum and 5% horse serum (Invitrogen). 2 days after the start of the co-culture, cells were treated for 24 hours with 10 μM cytosine arabinoside in order to suppress the excessive cell proliferation of microglia and the like. 8 to 9 days after the start of the co-culture, cells were used for the test. Additionally, using one portion of the cells, immunofluorescent staining and nuclear staining was carried out with astrocyte recognizing antibodies (anti-GFAP) and neuron recognizing antibodies (anti-MAP2), in order to confirm that the present culture system is a co-culture system of astrocytes and neurons.
An astrocyte/neuron co-culture cultured on a 96 well plate was used in the test. A predetermined concentration of the test substance and hydrogen peroxide (250 μM) was simultaneously added to the cell culture in each well with continuing cultivation, and analysis was done 24 hours after this treatment. Using an LDH Cytotoxicity Detection Kit (Takara Bio), analysis was carried out in accordance with the included instruction manual, and the damage to the entire co-culture system by the hydrogen peroxide treatment and the protective effect (EC 50 value) of the test substance was evaluated. Further, the cell bodies and the neuronal processes of the neurons were observed by microscope, and the neuroprotective effect was evaluated.
Turning to `CN(C)c1nc(N2CCC(Cc3ccccc3)CC2)nc(N2CCOCC2)c1N` [Compound 68, 5-amino-2-(4-benzylpiperidin-1-yl)-4-dimethylamino-6-morpholinopyrimidine], the EC50 was determined as 860 nM.

For the origin of these results see patent US8563715B2, “Pyrimidine derivative having cell protecting effect and uses thereof” (Zenyaku Kogyo Kabushikikaisha, priority 2008, dated 2013).
